Series [1] deals with Mycobacteroides abscessus. In words: Antibacterial activity against Mycobacterium abscessus. The class given is functional, organism-based.
Series [2] has as its system Mycobacterium tuberculosis. In words: Antimycobacterial activity against Mycobacterium tuberculosis H37Rv measured after 1 week. The series is classed as functional. To be noted: 168 h.
Series [3] has as its system Mycobacterium tuberculosis H37Rv. Kind of series: Inhibition of Mycobacterium tuberculosis H37Rv cytochrome bc1 oxidase assessed as reduction in ATP level measured up to 24 hrs under anaerobic condition.
Another series has as its system Escherichia coli. Kind of series: Antibacterial activity against Escherichia coli 25922. The series is classed as functional, organism-based. To be noted: ATCC 25922.
Series [4] concerns Mycobacterium tuberculosis. In words: Antimycobacterial activity against Mycobacterium tuberculosis H37Rv after 2 weeks by microplate alamar blue assay. The class given is functional. The following applies: 336 h. In general terms: Resazurin is reduced to fluorescent resorufin, in cell work by metabolically active cells.
Another series deals with Staphylococcus aureus. Kind of series: Antibacterial activity against Staphylococcus aureus XEN36. The class given is functional, organism-based.
A short description of series [5]: Cytotoxicity against human HepG2 cells after 24 to 48 hrs in presence of glucose by trypan blue dye-based hemocytometric method. The class given is cell-based.
Series [6] relates to Mycobacterium tuberculosis. Kind of series: Antimycobacterial activity against Mycobacterium tuberculosis H37Rv BSG001. The series is classed as functional, organism-based.
Series [7] concerns Mycolicibacterium smegmatis. Kind of series: Antibacterial activity against Mycobacterium smegmatis. The class given is functional, organism-based.
Series [8] in a line: Cytotoxicity against human HepG2 cells after 24 to 48 hrs in presence of galactose by trypan blue dye-based hemocytometric method. The class given is cell-based.
The test system of series [9] is Mycobacterium tuberculosis. Kind of series: Antimycobacterial activity against Mycobacterium tuberculosis H37Rv measured after 2 weeks. The series is classed as functional. The following applies: 336 h.

≈ marks a conversion by molar mass, not a printed value. Calls of active or inactive are those of the source. No cut-off for these calls is given here.

Broadly, the MIC is the lowest concentration that inhibits growth of the organism. A high value points to a less susceptible organism. What is called CC50 is the concentration at which the toxic effect on the cells reaches its halfway point. As to `COc1ccc2nc(C)cc(OCC(=O)NCCc3ccc4c(c3)OCO4)c2c1`, the outcome (in [1]; with Escherichia coli; with Staphylococcus aureus; in series [6]; in series [7]) was inactive. In addition, the figures for the MIC in series [2], in series [4] and in [9] were not below 127 µM, 31.7 µM (≈ 12.5 µg/mL) and more than 127 µM, respectively. In addition, the inhibition entry in series [3] was “Active”. Further, the CC50 in series [5] and in series [8] was more than 127 µM throughout.
For the compound `COc1ccc2nc(C)cc(OCC(=O)NCCCc3ccccc3)c2c1`, the outcome (in [1]; with Escherichia coli; in the series on Staphylococcus aureus; in series [6]; in [7]) was inactive. Further, the values for the MIC in series [2], in series [4] and in series [9] were 68.6 µM (≈ 25 µg/mL), 25.8 µM (≈ 9.4 µg/mL) and 68.6 µM (≈ 25 µg/mL), respectively. Moreover, the inhibition result in [3] is “Active”. In addition, the CC50 in [5] is more than 137 µM; in series [8] it was 50.7 µM.
`COc1ccc2nc(C)cc(OCC(=O)Nc3ccccc3)c2c1`: the outcome (in [1]; in the series with Escherichia coli; in the series on Staphylococcus aureus; in [6]; in series [7]) was inactive. Also, the MIC in [2] was 1.21 µM (≈ 0.39 µg/mL); in [4], 0.62 µM (≈ 0.2 µg/mL); in series [9], more than 155 µM. In addition, in series [3], the inhibition result was “Active”. The CC50 is more than 155 µM in series [5] and 118 µM in series [8].
Consider `COc1ccc2nc(C)cc(OCC(=O)Nc3ccc(C)cc3)c2c1`, for which the outcome (in series [1]; with Escherichia coli; in the series with Staphylococcus aureus; in series [6]; in series [7]) was inactive. Besides, the MIC was 0.45 µM (≈ 0.151 µg/mL) in series [2], 0.45 µM (≈ 0.151 µg/mL) in series [4] and more than 149 µM in series [9]. Further, the inhibition entry in series [3] is “Active”. Also, the figures for the CC50 in series [5] and in [8] were more than 149 µM and 41.5 µM, respectively.
For the compound `COc1ccc2nc(C)cc(OCC(=O)Nc3ccc(OC)c(OC)c3)c2c1`, the outcome (in series [1]; with Escherichia coli; in the series on Staphylococcus aureus; in [6]; in series [7]) was inactive. In addition, the MIC was more than 131 µM in series [2], 24.6 µM (≈ 9.4 µg/mL) in series [4] and more than 131 µM in series [9]. Further, the inhibition entry in series [3] is “Active”. The CC50 in [5] and in [8] was more than 131 µM in each case.
On to `Nc1ccc(C(=O)O)c(O)c1` [AMINOSALICYLIC ACID], for which the minimal inhibitory concentration (MIC) was found to be 0.3 µM (≈ 0.0459 µg/mL) in [2], 0.3 µM (≈ 0.0459 µg/mL) in series [4] and 0.6 µM (≈ 0.0919 µg/mL) in series [9].
With `COc1ccccc1NC(=O)COc1cc(C)nc2ccc(C(F)(F)F)cc12`, the result (in [1]; in the series with Escherichia coli; in the series on Staphylococcus aureus; in [6]; in series [7]) was inactive. Moreover, the MIC in series [2], in series [4] and in series [9] was more than 128 µM in each case. Further, the inhibition entry in series [3] was “Active”. Also, the CC50 in series [5] and in series [8] was more than 128 µM throughout.
Regarding `COCCNC(=O)COc1cc(C)nc2ccc(OC)cc12`, the result (in series [1]; in the series on Escherichia coli; with Staphylococcus aureus; in series [6]; in series [7]) was inactive. The MIC in [2] is more than 164 µM; in series [4], 122 µM (≈ 37 µg/mL); in series [9] it was more than 164 µM. In addition, the inhibition result in series [3] was “Active”. The CC50 in series [5] and in series [8] was more than 164 µM in each case.
Regarding `COc1ccccc1NC(=O)COc1cc(C)nc2ccc(C)cc12`, the result (in series [1]; in the series on Escherichia coli; in the series on Staphylococcus aureus; in series [6]; in [7]) was inactive. For the same compound, the MIC was 56.5 µM (≈ 19 µg/mL) in series [2], 9.3 µM (≈ 3.13 µg/mL) in series [4] and more than 74 µM in series [9]. The inhibition result in [3] is “Active”. Also, the CC50 in series [5] and in [8] was more than 74 µM throughout.
As for `C#CCNC(=O)COc1cc(C)nc2ccc(OC)cc12`, the outcome (in series [1]; in the series with Escherichia coli; with Staphylococcus aureus; in [6]; in series [7]) was inactive. For the same compound, the MIC in series [2], in series [4] and in series [9] was more than 176 µM in each case. In addition, in series [3], the inhibition result is “Active”. Further, the CC50 in series [5] and in series [8] was more than 176 µM throughout.
As to `COc1ccccc1NC(=O)COc1cc(C)nc2ccc(Cl)cc12`, the result (in [1]; in the series on Escherichia coli; in the series on Staphylococcus aureus; in [6]; in series [7]) was inactive. Further, the MIC in series [2] is 26.4 µM (≈ 9.4 µg/mL); in series [4], 104 µM (≈ 37 µg/mL); in series [9] it was more than 140 µM. In series [3], the inhibition result was “Active”. In addition, the CC50 in series [5] stood at 140 µM; in [8] it was 99.2 µM.
Regarding `c1ccc(Cn2cnc3c(-c4ccco4)nccc32)cc1`, the MIC is 12.5 µM (≈ 3.44 µg/mL) in [2], 1.56 µM (≈ 0.429 µg/mL) in [4] and more than 25 µM in series [9]. For the same compound, the inhibition entry in series [3] is “Active”. Moreover, the CC50 in [5] and in [8] was more than 25 µM throughout.
`CCCCCC[C@H]1C(=O)O[C@H](C)[C@H](NC(=O)c2cccc(NC=O)c2O)C(=O)O[C@@H](C)[C@@H]1OC(=O)CC(C)C` [ANTIMYCIN A]: the CC50 in series [5] is more than 50 µM; in series [8], 0.017 µM.
`CC(=O)NC[C@H]1CN(c2ccc(N3CCOCC3)c(F)c2)C(=O)O1` [LINEZOLID]: the MIC in [2], in [4] and in series [9] was 2.3 µM (≈ 0.776 µg/mL) throughout. Besides, in series [3], the inhibition entry was “inactive”.
With `COc1ccc2nc(C)cc(OCC(=O)Nc3ccccc3Cl)c2c1`, the outcome (in series [1]; in the series on Escherichia coli; in the series with Staphylococcus aureus; in series [6]; in series [7]) was inactive. Besides, the MIC in series [2] turned out to be 26.4 µM (≈ 9.4 µg/mL); in [4], 0.56 µM (≈ 0.2 µg/mL); in series [9] it was 53.2 µM (≈ 19 µg/mL). The inhibition entry in series [3] is “Active”. In addition, the CC50 in [5] and in [8] was more than 140 µM each time.
For `COc1ccc2nc(C)cc(OCC(=O)Nc3ccc(Br)cc3)c2c1`, the outcome (in series [1]; in the series on Escherichia coli; with Staphylococcus aureus; in series [6]; in [7]) was inactive. Further, the MIC is more than 125 µM in series [2], 1.94 µM (≈ 0.778 µg/mL) in [4] and more than 125 µM in [9]. Besides, the inhibition entry in [3] is “Active”. The CC50 in series [5] and in [8] was more than 125 µM throughout.
For the compound `COc1cccc(NC(=O)COc2cc(C)nc3ccc(OC)cc23)c1`, the result (in series [1]; with Escherichia coli; with Staphylococcus aureus; in series [6]; in series [7]) was inactive. Moreover, the MIC in [2] is 142 µM (≈ 50 µg/mL); in series [4], 6.53 µM (≈ 2.3 µg/mL); in series [9] it was more than 142 µM. Besides, the inhibition result in [3] was “Active”. Further, the CC50 came out at 43 µM in [5] and 24.7 µM in series [8].
As to `COc1ccc(NC(=O)COc2cc(C)nc3ccc(OC)cc23)c(OC)c1`, the outcome (in series [1]; in the series with Escherichia coli; in the series on Staphylococcus aureus; in series [6]; in series [7]) was inactive. Moreover, the MIC in [2] was found to be 24.6 µM (≈ 9.4 µg/mL); in [4] it was 2.04 µM (≈ 0.78 µg/mL); in series [9], 32.7 µM (≈ 12.5 µg/mL). In addition, in series [3], the inhibition entry was “Active”. Also, the CC50 in [5] and in series [8] was more than 131 µM each time.
Turning to `COc1ccc(OC)c(CCNC(=O)COc2cc(C)nc3ccc(OC)cc23)c1`, the outcome (in [1]; in the series on Escherichia coli; with Staphylococcus aureus; in [6]; in series [7]) was inactive. The MIC in series [2] is 122 µM (≈ 50 µg/mL); in series [4], 60.9 µM (≈ 25 µg/mL); in series [9] it was more than 122 µM. The inhibition entry in [3] was “Active”. In addition, the CC50 in series [5] and in series [8] was more than 122 µM throughout.
Take `COc1ccc(NC(=O)COc2cc(C)nc3ccc(OC)cc23)cc1`: the result (in series [1]; in the series with Escherichia coli; with Staphylococcus aureus; in series [6]; in series [7]) was inactive. Also, the MIC was 2.21 µM (≈ 0.779 µg/mL) in series [2], 1.11 µM (≈ 0.391 µg/mL) in series [4] and more than 142 µM in [9]. The inhibition entry in series [3] was “Active”. The CC50 in series [5] and in series [8] was more than 142 µM in each case.
As for `COc1nc2ccc(Br)cc2cc1[C@@H](c1ccccc1)[C@@](O)(CCN(C)C)c1cccc2ccccc12`, in series [3], the inhibition entry was “Active”.

For the origin of these results see ChEMBL document CHEMBL4190162, “SAR and identification of 2-(quinolin-4-yloxy)acetamides as Mycobacterium tuberculosis cytochrome bc1 inhibitors” (Medchemcomm, 2016).
